The results in this text go back to ChEMBL document CHEMBL5370582, “Heterolactone and Heterolactams A-M, Verticillane Diterpenoids with Anti-Inflammatory and Hepatoprotective Activities from the Soft Coral Heteroxenia ghardaqensis” (J Nat Prod, 2023).

The species entered for experiment [1] is Danio rerio. The experiment in a line: Hepatoprotective activity against isoniazid/alcohol-induced liver injury in transgenic Zebrafish larvae at 50 uM incubated for 72 hrs by fluorescence microscopy. The experiment is classed as functional, organism-based.
Experiment [2] is filed under the species Danio rerio. The experiment in a line: Anti-inflammatory activity against CuSO4-induced inflammatory response in transgenic Zebrafish larvae assessed as reduction in number of macrophages at 20 uM pretreated for 2 hrs followed by CuSO4-stimulation and measured after 1 hr by fluorescence microscopy. The conditions noted are these: time 3.0 hrs. In kind it is functional, organism-based.

Active and inactive are the calls of the source. The calls are words filed in the database; no cut-off is given here.

As for `CC(C)CCN1C(=O)[C@@]2(C)CC[C@H]3CC[C@H](C)CC(=O)C[C@H](C)/C=C\1[C@]2(O)C3(C)C`, the outcome in experiment [1] was Active.
`C[C@H]1CC[C@@H]2CCC3=C([C@@H](C[C@@H](C)CC(=O)C1)N(CCO)C3=O)C2(C)C`: the result in experiment [2] and in experiment [1] was Active.
In the case of `C[S+](CC[C@H](N)C(=O)[O-])C[C@H]1O[C@@H](n2cnc3c(N)ncnc32)[C@H](O)[C@@H]1O` (stereo partly drawn), the outcome in experiment [1] was Active.
Same read-out and setting: the same measure for `C[C@H]1CC[C@@H]2CCC3=C(C2(C)C)[C@@](O)(C[C@@H](C)CC(=O)C1)NC3=O`: “Active”.
`COc1ccc2c(c1)c(CC(=O)O)c(C)n2C(=O)c1ccc(Cl)cc1`: the result in experiment [2] was Active.
For the compound `C[C@H]1CC[C@@H]2CCC3=C([C@@H](C[C@@H](C)CC(=O)C1)N(CCc1ccccc1)C3=O)C2(C)C`, in experiment [2], the outcome was Active.
On the same count and under the same terms, as for `C[C@H]1CC[C@@H]2CCC3=C(C2(C)C)[C@@](O)(C[C@@H](C)CC(=O)C1)N(CCc1ccccc1)C3=O`, the entry is “Active”.
